According to patent publication US9670126B2, “Methods of making 15-hydroxy fatty acid derivatives” (Dignity Sciences Limited, priority 2013, dated 2017):
Blank lines part the entries; values can stand above or below the molecule they belong to.

Columns and labels:
[1] = cited from earlier work
[2] = Solubility (reactor cleaning); conditions: residues
[3] = Neat HETrE heated at 50° C. under vacuum; assay type: physicochemical; conditions: under vacuum (1822-129-4E), 1 major impurity, ester formed with itself
Procedure: (§1) Previously, neat HETrE heated at 50° C.

[4] = Heat stability trial of HETrE under solvent removal conditions (reflux in 40% MtBE:cyclohexane), UPLC; assay type: physicochemical
Procedure: as §1
A heat stability trial was conducted where a solution of HETrE (˜9.1 g) in 500 mL 40% MtBE: cyclohexane was heated at 75° C. (external oil bath temperature) at 400 mbar vacuum (condenser coolant temperature −0° C.). This established a gentle reflux. The solution was protected from light. Samples were withdrawn at various time points, under a nitrogen atmosphere, and analysed by UPLC (252 nm) (FIG. 15).
The conditions were designed to mimic the likely conditions encountered on a plant scale solvent removal from pooled column fractions. […] The reflux was extended over a further 112 hours.

[5] = Storage stability of freeze dried enzyme, judged in the DGLA reaction; conditions: stored at ambient, atmospheric conditions for two weeks; then 1.8 Munits/g DGLA
Procedure: It was also observed that the freeze dried enzyme supplied had good stability. Although recommended to be stored at −20° C., and desiccated after use, the batch was stored at ambient, atmospheric conditions for two weeks before being utilised in a reaction using the optimised enzyme loadings (1.8 Munits/g DGLA). […] The reaction was carried out in buffer solution to maintain pH and solubilise reaction components. Cysteine, a mild reducing agent, was used in place of sodium borohydride. Use of cysteine enabled the oxidation/reduction reaction to be carried out in one step. In addition no flammable hydrogen was generated during reaction/quench. Furthermore, fewer over-oxidation products were produced, likely due to cysteine's anti-oxidant properties. It is also believed that the addition of the reducing agent at beginning of the process helps to lessen irreversible enzyme inactivation by high concentrations of hydroperoxide, thus leading to lower enzyme requirement (e.g., cost savings) and lower potential for over-oxidation.

Molecule: N[C@@H](CS)C(=O)O [Cysteine]
solubility in ethanol ([1]; 19° C.): 1.5 g/100 g of ethanol

Molecule: N[C@@H](CSSC[C@H](N)C(=O)O)C(=O)O [cystine]
solubility in 1M HCl with heating ([1]; 1M HCl with heating): 50 mg/mL
solubility in basic solutions ([1]; basic solutions): soluble

solubility in alcohols such as ethanol and methanol, or acetone [2]: readily soluble
degradation of neat material [3]: showed degradation
degradation on extended refluxing ([4]; 4.5 days refluxing in 40% MtBE:cyclohexane, external temperature 75° C.): did not cause significant degradation
degradation under plant-typical solvent evaporation conditions ([4]; in solution and on hot surfaces, timescale of <2 days): no significant degradation
Molecule: CCCCC[C@H](O)/C=C/C=C\C/C=C\CCCCCCC(=O)O [15(S)-HETrE, 15-(S)-hydroxyeicosatrienoic acid]

B1: freeze dried enzyme: commercial freeze-dried soybean lipoxygenase (protein, UniProt P08170 1-839, looked up)
Seed linoleate …: MFSAGHKIKGTVVLMPKNELEVNPDGSAVDNLNAFLGRSVSLQLISATKADAHGKGKVGKDTFLEGINTSLPTLGAGESAFNIHFEWDGSMGIPGAFYIKNYMQVEFFLKSLTLEAISNQGTIRFVCNSWVYNTKLYKSVRIFFANHTYVPSETPAPLVSYREEELKSLRGNGTGERKEYDRIYDYDVYNDLGNPDKSEKLARPVLGGSSTFPYPRRGRTGRGPTVTDPNTEKQGEVFYVPRDENLGHLKSKDALEIGTKSLSQIVQPAFESAFDLKSTPIEFHSFQDVHDLYEGGIKLPRDVISTIIPLPVIKELYRTDGQHILKFPQPHVVQVSQSAWMTDEEFAREMIAGVNPCVIRGLEEFPPKSNLDPAIYGDQSSKITADSLDLDGYTMDEALGSRRLFMLDYHDIFMPYVRQINQLNSAKTYATRTILFLREDGTLKPVAIELSLPHSAGDLSAAVSQVVLPAKEGVESTIWLLAKAYVIVNDSCYHQLMSHWLNTHAAMEPFVIATHRHLSVLHPIYKLLTPHYRNNMNINALARQSLINANGIIETTFLPSKYSVEMSSAVYKNWVFTDQALPADLIKRGVAIKDPSTPHGVRLLIEDYPYAADGLEIWAAIKTWVQEYVPLYYARDDDVKNDSELQHWWKEAVEKGHGDLKDKPWWPKLQTLEDLVEVCLIIIWIASALHAAVNFGQYPYGGLIMNRPTASRRLLPEKGTPEYEEMINNHEKAYLRTITSKLPTLISLSVIEILSTHASDEVYLGQRDNPHWTSDSKALQAFQKFGNKLKEIEEKLVRRNNDPSLQGNRLGPVQLPYTLLYPSSEEGLTFRGIPNSISI
performance after storage [5]: No deterioration in performance
